One test concerns the target DNA-PK (Homo sapiens (Human), UniProt P78527). The test can be described thus: DNA-PK Enzyme-Linked Immunosorbent Assay (phosphorylation of GST-p53 (1-101) peptide). The format is biochemical. As to conditions: ELISA, 20 μM ATP. Put shortly:
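ELISA with plate-bound GST-p53 (1-101) phosphorylated by DNA-PK (0.1 μg/mL final) with 20 μM ATP for 1 h at 25 °C. Compounds tested over 10 3-fold doses from 100 nM top final. Phospho-p53 Ser15 detected by antibody, HRP and TMB, absorbance at 450 nm.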

A further test concerns the target ATM (Homo sapiens (Human), UniProt Q13315). Description: ATM in Cell Western Assay (pKAP1 in etoposide-treated MCF-7 cells). The format is cell-based. Particulars: pKAP1 in etoposide-treated MCF-7 cells. Put shortly:
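Cells received compounds in a 10-dose, 3-fold series from a 1 μM final top concentration, then 100 μM etoposide, for 1 hr at 37° C. They were then fixed with paraformaldehyde and permeabilized with 0.1% Triton X-100. After immunostaining, plates were scanned on an infrared imager.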

SMILES strings stand for the structures. pIC50: −log10 of the molar value. Where a name gives a salt, the structure may show the parent alone.

ATM, sequence (Q13315 whole entry): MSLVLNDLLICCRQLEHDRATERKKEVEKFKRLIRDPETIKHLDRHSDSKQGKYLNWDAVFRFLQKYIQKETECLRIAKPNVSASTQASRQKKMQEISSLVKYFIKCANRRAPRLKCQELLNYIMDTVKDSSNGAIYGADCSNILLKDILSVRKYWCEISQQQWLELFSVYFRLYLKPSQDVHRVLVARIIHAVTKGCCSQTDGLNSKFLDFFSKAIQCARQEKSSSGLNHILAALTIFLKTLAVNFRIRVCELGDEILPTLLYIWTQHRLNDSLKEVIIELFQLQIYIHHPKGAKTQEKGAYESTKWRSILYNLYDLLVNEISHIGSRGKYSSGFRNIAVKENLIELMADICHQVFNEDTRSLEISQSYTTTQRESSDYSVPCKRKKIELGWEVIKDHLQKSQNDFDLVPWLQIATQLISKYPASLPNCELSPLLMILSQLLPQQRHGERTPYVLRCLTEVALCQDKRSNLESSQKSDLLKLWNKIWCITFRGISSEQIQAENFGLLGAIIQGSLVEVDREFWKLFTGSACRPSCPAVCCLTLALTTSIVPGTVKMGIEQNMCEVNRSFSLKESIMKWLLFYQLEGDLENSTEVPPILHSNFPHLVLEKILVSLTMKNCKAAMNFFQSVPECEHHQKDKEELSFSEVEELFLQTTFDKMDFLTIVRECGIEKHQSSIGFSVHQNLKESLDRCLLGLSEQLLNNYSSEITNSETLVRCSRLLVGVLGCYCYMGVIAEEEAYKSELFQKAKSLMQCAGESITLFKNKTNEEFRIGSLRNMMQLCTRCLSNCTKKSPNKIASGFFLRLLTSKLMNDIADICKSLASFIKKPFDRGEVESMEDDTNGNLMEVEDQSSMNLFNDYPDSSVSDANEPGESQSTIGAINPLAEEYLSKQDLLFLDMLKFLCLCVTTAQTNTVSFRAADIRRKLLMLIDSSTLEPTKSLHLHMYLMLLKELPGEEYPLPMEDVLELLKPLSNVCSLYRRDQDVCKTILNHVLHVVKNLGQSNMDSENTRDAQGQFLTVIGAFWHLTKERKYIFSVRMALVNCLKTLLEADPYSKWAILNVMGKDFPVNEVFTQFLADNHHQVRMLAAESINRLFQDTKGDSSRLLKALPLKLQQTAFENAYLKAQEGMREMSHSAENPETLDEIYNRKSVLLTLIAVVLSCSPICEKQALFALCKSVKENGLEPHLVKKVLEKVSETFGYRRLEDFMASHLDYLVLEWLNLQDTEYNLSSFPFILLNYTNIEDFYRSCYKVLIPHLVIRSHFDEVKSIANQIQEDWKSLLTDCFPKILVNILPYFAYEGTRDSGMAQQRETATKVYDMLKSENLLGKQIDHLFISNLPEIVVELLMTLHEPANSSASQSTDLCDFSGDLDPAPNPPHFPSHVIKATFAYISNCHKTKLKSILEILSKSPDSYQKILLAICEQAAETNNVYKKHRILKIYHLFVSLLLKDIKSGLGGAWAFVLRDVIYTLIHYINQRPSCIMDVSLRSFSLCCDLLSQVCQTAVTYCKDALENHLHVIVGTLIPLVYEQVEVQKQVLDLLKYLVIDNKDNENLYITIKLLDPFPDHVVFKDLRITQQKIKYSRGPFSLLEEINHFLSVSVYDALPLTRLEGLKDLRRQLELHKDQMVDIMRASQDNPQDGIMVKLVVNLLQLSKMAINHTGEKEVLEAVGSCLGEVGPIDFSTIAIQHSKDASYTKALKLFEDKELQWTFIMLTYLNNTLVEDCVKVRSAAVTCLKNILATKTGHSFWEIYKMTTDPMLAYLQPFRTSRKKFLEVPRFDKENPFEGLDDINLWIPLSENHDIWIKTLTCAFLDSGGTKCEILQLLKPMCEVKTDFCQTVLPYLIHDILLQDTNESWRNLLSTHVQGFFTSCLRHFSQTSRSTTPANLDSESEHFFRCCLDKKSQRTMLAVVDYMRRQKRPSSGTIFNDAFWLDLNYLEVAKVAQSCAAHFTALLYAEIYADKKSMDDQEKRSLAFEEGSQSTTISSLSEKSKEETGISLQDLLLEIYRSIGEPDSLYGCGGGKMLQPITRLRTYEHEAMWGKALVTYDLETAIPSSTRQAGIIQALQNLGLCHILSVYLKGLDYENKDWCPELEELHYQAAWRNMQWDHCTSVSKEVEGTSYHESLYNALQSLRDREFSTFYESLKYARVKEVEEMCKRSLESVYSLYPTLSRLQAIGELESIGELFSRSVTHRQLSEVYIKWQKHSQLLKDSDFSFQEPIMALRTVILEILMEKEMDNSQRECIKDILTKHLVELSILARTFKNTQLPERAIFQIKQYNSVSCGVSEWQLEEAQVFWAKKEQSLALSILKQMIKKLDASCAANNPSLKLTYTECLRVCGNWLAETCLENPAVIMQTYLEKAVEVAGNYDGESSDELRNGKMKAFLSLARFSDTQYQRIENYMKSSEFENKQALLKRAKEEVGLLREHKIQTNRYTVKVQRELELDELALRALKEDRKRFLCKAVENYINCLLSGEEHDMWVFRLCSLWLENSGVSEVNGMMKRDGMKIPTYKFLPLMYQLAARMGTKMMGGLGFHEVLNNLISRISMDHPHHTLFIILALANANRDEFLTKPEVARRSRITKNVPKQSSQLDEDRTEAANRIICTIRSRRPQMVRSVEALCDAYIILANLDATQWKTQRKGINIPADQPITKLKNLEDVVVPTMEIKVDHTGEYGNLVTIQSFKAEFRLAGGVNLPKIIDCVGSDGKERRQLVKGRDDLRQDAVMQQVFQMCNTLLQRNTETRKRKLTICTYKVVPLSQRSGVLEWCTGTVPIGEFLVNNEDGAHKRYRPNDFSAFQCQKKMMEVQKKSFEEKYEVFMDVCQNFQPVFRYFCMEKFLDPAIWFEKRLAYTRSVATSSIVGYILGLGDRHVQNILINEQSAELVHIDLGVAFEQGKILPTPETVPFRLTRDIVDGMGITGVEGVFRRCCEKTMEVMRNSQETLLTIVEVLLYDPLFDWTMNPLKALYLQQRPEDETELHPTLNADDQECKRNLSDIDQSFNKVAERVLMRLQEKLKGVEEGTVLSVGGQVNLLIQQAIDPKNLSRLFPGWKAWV

Broadly, the pIC50 is the negative decadic logarithm of the IC50, by convention in mol/L. Low readings indicate a high IC50, high ones a low IC50. For the compound `COc1cc([C@H]2C[C@@]3(C2)C(=O)N(C)c2cnc4cc(F)c(-c5cnc(OCCNC(C)C)c(NS(C)(=O)=O)c5)cc4c23)ccn1` [Example 433, trans-N-(5-(7′-Fluoro-3-(2-methoxypyridin-4-yl)-3′-methyl-2′-oxo-2′,3′-dihydrospiro[cyclobutane-1,1′-pyrrolo[2,3-c]quinolin]-8′-yl)-2-(2-(isopropylamino)ethoxy)pyridin-3-yl)methanesulfonamide], the pIC50 at DNA-PK is 7.00 to 9.00; against ATM it was below 7.00.
On the same counts, the results for `CC(C)NCCOc1ncc(-c2cc3c(cc2F)ncc2c3[C@]3(C[C@H](c4ccccn4)C3)C(=O)N2C)cc1NS(C)(=O)=O` [Example 434, cis-N-(5-(7′-Fluoro-3′-methyl-2′-oxo-3-(pyridin-2-yl)-2′,3′-dihydrospiro [cyclobutane-1,1′-pyrrolo[2,3-c]quinolin]-8′-yl)-2-(2-(isopropylamino)ethoxy)pyridin-3-yl)methanesulfonamide] are 7.00 to 9.00 and 7.00 to 9.00.
Turning to `CC(C)NCCOc1ncc(-c2cc3c(cc2F)ncc2c3[C@]3(C[C@@H](c4ccccn4)C3)C(=O)N2C)cc1NS(C)(=O)=O` [Example 435, trans-N-(5-(7′-Fluoro-3′-methyl-2′-oxo-3-(pyridin-2-yl)-2′,3′-dihydrospiro[cyclobutane-1,1′-pyrrolo[2,3-c]quinolin]-8′-yl)-2-(2-(isopropylamino)ethoxy)pyridin-3-yl)methanesulfonamide], the negative logarithm of the IC50 (pIC50) on DNA-PK was 7.00 to 9.00; against ATM, below 7.00.
For the compound `CC(C)NCCOc1ncc(-c2cc3c(cc2F)ncc2c3[C@]3(C[C@H](c4cccnc4)C3)C(=O)N2C)cc1NS(C)(=O)=O` [Example 436, cis-N-(5-(7′-Fluoro-3′-methyl-2′-oxo-3-(pyridin-3-yl)-2′,3′-dihydrospiro[cyclobutane-1,1′-pyrrolo[2,3-c]quinolin]-8′-yl)-2-(2-(isopropylamino)ethoxy)pyridin-3-yl)methanesulfonamide], the pIC50 at DNA-PK and at ATM was 7.00 to 9.00 each time.
Take `CC(C)NCCOc1ncc(-c2cc3c(cc2F)ncc2c3[C@]3(C[C@@H](c4cccnc4)C3)C(=O)N2C)cc1NS(C)(=O)=O` [Example 437, trans-N-{5-(7′-Fluoro-3′-methyl-2′-oxo-3-(pyridin-3-yl)-2′,3′-dihydrospiro[cyclobutane-1,1′-pyrrolo[2,3-c]quinolin]-8′-yl)-2-(2-(isopropylamino)ethoxy)pyridin-3-yl)methanesulfonamide]: the pIC50 is 7.00 to 9.00 at DNA-PK and below 7.00 against ATM.
The like results for `CC(C)NCCOc1ncc(-c2cc3c(cc2F)ncc2c3[C@]3(C[C@H](c4ccncc4)C3)C(=O)N2C)cc1NS(C)(=O)=O` [Example 438] were, in that order, 7.00 to 9.00 and 7.00 to 9.00.
On the same counts, the results for `CC(C)NCCOc1ncc(-c2cc3c(cc2F)ncc2c3[C@]3(C[C@@H](c4ccncc4)C3)C(=O)N2C)cc1NS(C)(=O)=O` [Example 439, trans-N-{5-(7′-Fluoro-3′-methyl-2′-oxo-3-(pyridin-4-yl)-2′,3′-dihydrospiro[cyclobutane-1,1′-pyrrolo[2,3-c]quinolin]-8′-yl)-2-(2-(isopropylamino)ethoxy)pyridin-3-yl)methanesulfonamide] are 7.00 to 9.00 and below 7.00.
On the same counts, the results for `CC(C)NCCOc1ncc(-c2cc3c(cc2F)ncc2c3[C@]3(C[C@H](c4cccc(=O)[nH]4)C3)C(=O)N2C)cc1NS(C)(=O)=O` [Example 440, cis-N-(5-(7′-Fluoro-3′-methyl-2′-oxo-3-(6-oxo-1,6-dihydropyridin-2-yl)-2′,3′-dihydrospiro[cyclobutane-1,1′-pyrrolo[2,3-c]quinolin]-8′-yl)-2-(2-(isopropylamino)ethoxy)pyridin-3-yl)methanesulfonamide] are 7.00 to 9.00 and below 7.00.
As for `CC(C)NCCOc1ncc(-c2cc3c4c(cnc3cc2F)N(C)C(=O)C42CC(C)(C)C2)cc1NS(C)(=O)=O` [Example 446, N-(5-(7′-Fluoro-3,3,3′-trimethyl-2′-oxo-2′,3′-dihydrospiro[cyclobutane-1,1′-pyrrolo[2,3-c]quinolin]-8′-yl)-2-(2-(isopropylamino)ethoxy)pyridin-3-yl)methanesulfonamide], the negative logarithm of the IC50 (pIC50) is above 9.30 against DNA-PK and 7.00 to 9.00 against ATM.
`CC(C)NCCOc1ncc(-c2cc3c(cc2F)ncc2c3[C@]3(C[C@H](C)C3)C(=O)N2C)cc1NS(C)(=O)=O` [Example 448, cis-N-(5-(7′-Fluoro-3,3′-dimethyl-2′-oxo-2′,3′-dihydrospiro[cyclobutane-1,1′-pyrrolo[2,3-c]quinolin]-8′-yl)-2-(2-(isopropylamino)ethoxy)pyridin-3-yl)methanesulfonamide]: the negative logarithm of the IC50 (pIC50) against DNA-PK and on ATM was 7.00 to 9.00 in each case.
Consider `CC(C)NCCOc1ncc(-c2cc3c(cc2F)ncc2c3[C@]3(C[C@H](Cc4ccccc4)C3)C(=O)N2C)cc1NS(C)(=O)=O` [Example 451, cis-N-(5-(3-Benzyl-7′-fluoro-3′-methyl-2′-oxo-2′,3′-dihydrospiro[cyclobutane-1,1′-pyrrolo[2,3-c]quinolin]-8′-yl)-2-(2-(isopropylamino)ethoxy)pyridin-3-yl)methanesulfonamide], for which the pIC50 against DNA-PK and against ATM was 7.00 to 9.00 each time.
`CC(C)NCCOc1ncc(-c2cc3c(cc2F)ncc2c3[C@]3(C[C@H](C(C)(C)O)C3)C(=O)N2C)cc1NS(C)(=O)=O` [Example 456, cis-N-(5-(7′-Fluoro-3-(2-hydroxypropan-2-yl)-3′-methyl-2′-oxo-2′,3′-dihydrospiro[cyclobutane-1,1′-pyrrolo[2,3-c]quinolin]-8′-yl)-2-(2-(isopropylamino)ethoxy)pyridin-3-yl)methanesulfonamide]: the pIC50 at DNA-PK and at ATM was 7.00 to 9.00 in each case.
With `CC(C)NCCOc1ncc(-c2cc3c(cc2F)ncc2c3[C@]3(C[C@H](Nc4ccccc4)C3)C(=O)N2C)cc1NS(C)(=O)=O` [Example 459, cis-N-(5-(7′-Fluoro-3′-methyl-2′-oxo-3-(phenylamino)-2′,3′-dihydrospiro[cyclobutane-1,1′-pyrrolo[2,3-c]quinolin]-8′-yl)-2-(2-(isopropylamino)ethoxy)pyridin-3-yl)methanesulfonamide], the pIC50 against DNA-PK is 9.00 to 9.30; on ATM it was 7.00 to 9.00.
With `CC(C)NCCOc1ncc(-c2cc3c(cc2F)ncc2c3[C@]3(C[C@@H](Nc4ccccc4)C3)C(=O)N2C)cc1NS(C)(=O)=O` [Example 460, trans-N-(5-(7′-Fluoro-3′-methyl-2′-oxo-3-(phenylamino)-2′,3′-dihydrospiro[cyclobutane-1,1′-pyrrolo[2,3-c]quinolin]-8′-yl)-2-(2-(isopropylamino)ethoxy)pyridin-3-yl)methanesulfonamide hydrochloride], the pIC50 on DNA-PK and against ATM was 7.00 to 9.00 throughout.
Turning to `CC(C)NCCOc1ncc(-c2cc3c(cc2F)ncc2c3[C@]3(C[C@H](Nc4ccc(Cl)cc4)C3)C(=O)N2C)cc1NS(C)(=O)=O` [Example 461, cis-N-(5-(3-((4-Chlorophenyl)amino)-7′-fluoro-3′-methyl-2′-oxo-2′,3′-dihydrospiro[cyclobutane-1,1′-pyrrolo[2,3-c]quinolin]-8′-yl)-2-(2-(isopropylamino)ethoxy)pyridin-3-yl)methanesulfonamide], the pIC50 at DNA-PK and on ATM was 7.00 to 9.00 in each case.
As for `CC(C)NCCOc1ncc(-c2cc3c(cc2F)ncc2c3[C@]3(C[C@H](N(C)c4ccccc4)C3)C(=O)N2C)cc1NS(C)(=O)=O` [Example 463, cis-N-(5-(7′-Fluoro-3′-methyl-3-(methyl(phenyl)amino)-2′-oxo-2′,3′-dihydrospiro[cyclobutane-1,1′-pyrrolo[2,3-c]quinolin]-8′-yl)-2-(2-(isopropylamino)ethoxy)pyridin-3-yl)methanesulfonamide], the pIC50 at DNA-PK was above 9.30; against ATM it was 7.00 to 9.00.
Regarding `CN(C)CCCOc1ncc(-c2ccc3ncc4c(c3c2)C2(CN(C)C2)C(=O)N4C)cc1NS(C)(=O)=O` [Example 478, N-(5-(1,3′-Dimethyl-2′-oxo-2′,3′-dihydrospiro[azetidine-3,1′-pyrrolo[2,3-c]quinolin]-8′-yl)-2-(3-(dimethylamino)propoxy)pyridin-3-yl)methanesulfonamide], the pIC50 at DNA-PK and at ATM was 7.00 to 9.00 each time.
As to `CCS(=O)(=O)Nc1cc(-c2cc3c4c(cnc3cc2F)N(C)C(=O)C42CN(C(C)C)C2)cnc1OCCNC(C)C` [Example 483], the pIC50 was 9.00 to 9.30 against DNA-PK and 7.00 to 9.00 on ATM.
In the case of `CC(C)NCCOc1ncc(-c2cc3c4c(cnc3cc2F)N(C)C(=O)C42CN(C(C)C)C2)cc1NS(=O)(=O)C1CC1` [Example 484, N-(5-(7′-Fluoro-1-isopropyl-3′-methyl-2′-oxo-2′,3′-dihydrospiro[azetidine-3,1′-pyrrolo[2,3-c]quinolin]-8′-yl)-2-(2-(isopropylamino)ethoxy)pyridin-3-yl)cyclopropanesulfonamide], the negative-log IC50 (pIC50) against DNA-PK and at ATM was 7.00 to 9.00 throughout.
Consider `CC(C)NCCOc1ncc(-c2cc3c4c(cnc3cc2F)N(C)C(=O)C42CN(C(C)C)C2)cc1NS(=O)(=O)C(C)C` [Example 485, N-(5-(7′-Fluoro-1-isopropyl-3′-methyl-2′-oxo-2′,3′-dihydrospiro[azetidine-3,1′-pyrrolo[2,3-c]quinolin]-8′-yl)-2-(2-(isopropylamino)ethoxy)pyridin-3-yl)propane-2-sulfonamide], for which the pIC50 against DNA-PK and on ATM was 7.00 to 9.00 each time.
Regarding `CC(C)N1CC2(C1)C(=O)N(C)c1cnc3cc(F)c(-c4cnc(N5CCC(N6CCCCC6)CC5)c(NS(C)(=O)=O)c4)cc3c12` [Example 486], the pIC50 on DNA-PK and on ATM was 7.00 to 9.00 throughout.

Source of the values: patent publication US12187742B2 (XRAD Therapeutics, Inc., priority 2018, dated 2025).
